Among the data in ChEMBL document CHEMBL3045686, “Insecticidal Activity of N-Acyl-N-(4-aryloxybenzyl)pyrazole-5-carboxamides” (2003) are mortality values, retold here.

Bounds are passed on as bounds.

By mortality is commonly meant the share of the test organisms that died.

In the first experiment the test system is Spodoptera litura. Description: Insecticidal activity Spodoptera litura third-instar larvae fed on compound pre-treated cabbage leaf disks assessed as insect mortality at 3.1 ppm measured 5 days after compound treatment. The settings on record: foliar. It is filed as functional.
With `CCc1cc(C(=O)N(Cc2ccc(Oc3ccc(C#N)cc3)cc2)C(C)=O)n(C)n1`, the mortality at 3.1 ppm was more than 80%.
As to `CCc1cc(C(=O)N(Cc2ccc(Oc3ccc(C#N)cc3)cc2)C(=O)C(C)C)n(C)n1`, the mortality at 3.1 ppm is more than 80%.
With `CCc1cc(C(=O)N(Cc2ccc(Oc3ccc(SC)cc3)cc2)C(C)=O)n(C)n1`, the mortality at 3.1 ppm was more than 80%.

In a further experiment the test system is Spodoptera litura. Kind of experiment: Insecticidal activity Spodoptera litura third-instar larvae fed on compound pre-treated cabbage leaf disks assessed as insect mortality at 13 ppm measured 5 days after compound treatment. The settings on record: foliar. It is filed as functional.
Take `CCC(C)c1cc(C(=O)N(Cc2ccc(Oc3ccc(C#N)cc3)cc2)C(C)=O)n(C)n1` (stereo unspecified): the mortality at 13 ppm was more than 80%.
For the compound `CC(=O)N(Cc1ccc(Oc2ccc(C#N)cc2)cc1)C(=O)c1cc(C2CC2)nn1C`, the mortality at 13 ppm is more than 80%.
On the same count and under the same terms, next, `CCCc1cc(C(=O)N(Cc2ccc(Oc3ccc(C#N)cc3)cc2)C(C)=O)n(C)n1`: more than 80%.
For `CCc1cc(C(=O)N(Cc2ccc(Oc3ccc(C#N)cc3)cc2)C(=O)C(C)CC)n(C)n1` (stereo unspecified), the mortality at 13 ppm was more than 80%.
Turning to `CCc1cc(C(=O)N(Cc2ccc(Oc3ccc(C#N)cc3)cc2)C(=O)CC(C)C)n(C)n1`, the mortality at 13 ppm was more than 80%.
Same read-out and setting: the same measure for `CCCCC(=O)N(Cc1ccc(Oc2ccc(C#N)cc2)cc1)C(=O)c1cc(CC)nn1C`: more than 80%; for `CCc1cc(C(=O)N(Cc2ccc(Oc3ccc(C#N)cc3)cc2)C(=O)C2CC2)n(C)n1`: more than 80%; for `CCCC(=O)N(Cc1ccc(Oc2ccc(C#N)cc2)cc1)C(=O)c1cc(CC)nn1C`: more than 80%.
Regarding `CCC(=O)N(Cc1ccc(Oc2ccc(C#N)cc2)cc1)C(=O)c1cc(CC)nn1C`, the mortality at 13 ppm is more than 80%.
Same read-out and setting: the same measure for `CCc1cc(C(=O)N(Cc2ccc(Oc3ccc([N+](=O)[O-])cc3)cc2)C(C)=O)n(C)n1`: more than 80%.
Take `CCc1cc(C(=O)N(Cc2ccc(Oc3ccc(C(F)(F)F)cc3)cc2)C(C)=O)n(C)n1`: the mortality at 13 ppm is more than 80%.

Another experiment relates to Spodoptera litura. Description: Insecticidal activity Spodoptera litura third-instar larvae fed on compound pre-treated cabbage leaf disks assessed as insect mortality at 200 ppm measured 5 days after compound treatment. It is filed as functional. The settings on record: foliar.
For the compound `CCCCCc1cc(C(=O)N(Cc2ccc(Oc3ccc(C#N)cc3)cc2)C(C)=O)n(C)n1`, the mortality at 200 ppm is less than 80%.
With `CC(=O)N(Cc1ccc(Oc2ccc(C#N)cc2)cc1)C(=O)c1cc(C(C)(C)C)nn1C`, the mortality at 200 ppm is less than 80%.
Same read-out and setting: the same measure for `CC(=O)N(Cc1ccc(Oc2ccc(C#N)cc2)cc1)C(=O)c1cc(CC(C)C)nn1C`: more than 80%; for `CCCCc1cc(C(=O)N(Cc2ccc(Oc3ccc(C#N)cc3)cc2)C(C)=O)n(C)n1`: less than 80%; for `CCc1cc(C(=O)N(Cc2ccc(Oc3ccccc3)cc2)C(C)=O)n(C)n1`: less than 80%.
Still for that read-out and setting: next, `CCc1cc(C(=O)N(Cc2ccc(Oc3ccc(OC)cc3)cc2)C(C)=O)n(C)n1`: less than 80%; `CCc1cc(C(=O)N(Cc2ccc(Oc3ccc(C)cc3)cc2)C(C)=O)n(C)n1`: more than 80%; `CCc1cc(C(=O)N(Cc2ccc(Oc3ccc(Cl)cc3)cc2)C(C)=O)n(C)n1`: more than 80%.
Still for that read-out and setting: the same measure for `CCc1cc(C(=O)N(Cc2ccc(Oc3ccc(F)cc3)cc2)C(C)=O)n(C)n1`: more than 80%; for `CCCCOc1cc(C(=O)N(Cc2ccc(Oc3ccc(C#N)cc3)cc2)C(C)=O)n(C)n1`: more than 80%.

A further experiment deals with Spodoptera litura. Kind of experiment: Insecticidal activity Spodoptera litura third-instar larvae fed on compound pre-treated cabbage leaf disks assessed as insect mortality at 50 ppm measured 5 days after compound treatment. The settings on record: foliar. It counts as functional.
`CC(=O)N(Cc1ccc(Oc2ccc(C#N)cc2)cc1)C(=O)c1cc(OC(C)C)nn1C`: the mortality at 50 ppm was more than 80%.
Still for that read-out and setting: next, `CCOc1cc(C(=O)N(Cc2ccc(Oc3ccc(C#N)cc3)cc2)C(C)=O)n(C)n1`: more than 80%; `COc1cc(C(=O)N(Cc2ccc(Oc3ccc(C#N)cc3)cc2)C(C)=O)n(C)n1`: more than 80%; `CC(=O)N(Cc1ccc(Oc2ccc(C#N)cc2)cc1)C(=O)c1cc(C(C)C)nn1C`: more than 80%.
Consider `CC(=O)N(Cc1ccc(Oc2ccc(C#N)cc2)cc1)C(=O)c1cc(C)nn1C`, for which the mortality at 50 ppm is more than 80%.
On the same count and under the same terms, next, `CCc1cc(C(=O)N(Cc2ccc(Oc3ccc(C#N)cc3)cc2)C(=O)C(C)(C)C)n(C)n1`: more than 80%.
On to `CCc1cc(C(=O)NCc2ccc(Oc3ccc(C#N)cc3)cc2)n(C)n1`, for which the mortality at 50 ppm was more than 80%.
